Like-named read-outs stand apart in the source and are kept apart here.
How the values were obtained:
[1] = tested on: primary peritoneal macrophages; conditions: cited from earlier work
[2] = tested on: LPS-challenged macrophages; conditions: 0 to 50 μM, 6 h pre-incubation, LPS 24 h; cited from earlier work
LPS-induced ARDS [3] = conditions: cited from earlier work
[4] = tested on: lipopolysaccharide-induced inflammatory reactions; conditions: cited from earlier work
[5] = tested on: sepsis induction with live Escherichia coli / LPS O111:B4; conditions: cited from earlier work; for concentration of IL-1α: controls 1187.0±278.64
[6] = tested on: myocardial ischemia and reperfusion; conditions: cited from earlier work
polymicrobial sepsis [7] = conditions: 10 mg/kg intraperitoneally, 72 h after CL2P; cited from earlier work
ulcerative colitis (UC) = conditions: cited from earlier work
LPS-induced ARDS [8] = conditions: cited from earlier work; remark: listed apart in the source
macrophage foam cells = conditions: cited from earlier work
[9] = tested on: lethal endotoxemia / lethal sepsis; conditions: cited from earlier work
iNOS = conditions: cited from earlier work
polymicrobial sepsis [10] = conditions: 10 mg/kg intraperitoneally at 1 and 6 h after CL2P and every 12 h; cited from earlier work
[11] = tested on: inflammatory cytokines associated with ARDS; conditions: cited from earlier work
NK cell = assay: Nanostilbene in cancer patients: NK cell activity and interferon gamma; assay type: in vivo, human; conditions: administered in the form of nanostilbene
Source text: Additionally, pterostilbene has shown to inhibit inflammatory cytokines associated with ARDS.

[12] = rat, in vivo; cited from earlier work
[13] = 10 mg/kg intravenously then 10 mg/kg/h infusion

Question: What does the source list for C[S+]([O-])CCCCN=C=S (stereo not shown) [sulforaphane, 1-isothiocyanato-4-(methylsulfinyl)-butane]?
Answer: HO-1 expression ([1]; LPS-stimulated Nrf2 (+/+) macrophages): significantly augmented; LPS-stimulated mRNA expression, protein expression and production of TNF-alpha, IL-1beta, COX-2 and iNOS ([1]; Nrf2 (+/+) macrophages, pretreatment): potently inhibited; anti-inflammatory effect ([1]; Nrf2 (-/-) macrophages): attenuated; direct reaction with cytokines and NO [2]: neither directly reacted with cytokines, nor with NO; expression of NO and cytokines [2]: able to prevent; serum levels of interleukin-6 (IL-6) (LPS-induced ARDS [3]; 50 mg/kg, ELISA): significantly decreased; serum levels of tumor necrosis factor-α (TNF-α) (LPS-induced ARDS [3]; 50 mg/kg, ELISA): significantly decreased; lactate dehydrogenase (LDH) activity (LPS-induced ARDS [3]; 50 mg/kg, LPS 5 mg/kg 3 days later): significantly decreased; cyclooxygenase-2 (COX-2) protein expression (LPS-induced ARDS [3]; 50 mg/kg, western blot): significantly inhibited; matrix metalloproteinase-9 (MMP-9) protein expression (LPS-induced ARDS [3]; 50 mg/kg, western blot): significantly inhibited; inducible nitric oxide synthase (iNOS) activity (LPS-induced ARDS [3]; 50 mg/kg): significantly inhibited; nuclear factor-KB protein expression (LPS-induced ARDS [3]; 50 mg/kg): significantly decreased; prostaglandin E2 (PGE2) production (LPS-induced ARDS [3]; 50 mg/kg): significantly inhibited; wet-to-dry ratio of the lungs (LPS-induced ARDS [3]; 50 mg/kg): significantly decreased; Nrf2/antioxidant response element (ARE) pathway (LPS-induced ARDS [3]; pre-treatment): activated

Question: Which “concentration of nitric oxide” value [4] does the source give for CC1=CC(=O)C(C(C)C)=CC1=O [thymoquinone] here?
Answer: Its value is “reduced significantly”.

Question: And the lipopolysaccharide-induced inflammatory reactions [4]?
Answer: The lipopolysaccharide-induced inflammatory reactions was “suppressed effectively”.

Question: What about the “concentration of IL-1α” value ([5]; 0.75 mg/kg dose) of the same compound?
Answer: Its value is 310.8 ± 70.93 pg/mL.

Question: And the IL-10 levels ([5]; 0.75 mg/kg, controls 5505.2±333.96)?
Answer: The IL-10 levels was 2885.0 ± 553.98 pg/mL.

Question: And the “concentration of IL-1α” value ([5]; 1 mg/kg group)?
Answer: Its value is 428.3 ± 71.32 pg/mL.

Question: And the “levels of IL-2” value ([5]; P=0.0851)?
Answer: Its value is “relatively lower levels”.

Question: What about the “levels of TNF-α” value ([5]; P=0.1817) of the same compound?
Answer: Its value is “relatively lower levels”.

Question: And the mortality reduction ([5]; mice, thymoquinone intraperitoneal)?
Answer: The mortality reduction was 80-90%.

Question: What about the “renal and hepatic biomarker profiles” value ([5]; mouse, in vivo) of the same compound?
Answer: The value was “improved”.

Question: For epigallocatechin-3-gallate [EGCG], which myeloperoxidase activity [6, 13] is on record?
Answer: Its myeloperoxidase activity is “reduced”.

Question: And the myocardial damage [6, 13]?
Answer: The myocardial damage was “reduced”.

Question: And the “nuclear factor-kB and activator protein-1 DNA binding” value ([6]; rat, in vivo)?
Answer: The value was “reduction”.

Question: And the “plasma IL-6 levels” value ([6]; rat, in vivo)?
Answer: Its value is “decreased”.

Question: What about the “plasma creatine phosphokinase levels” value ([6]; rat, in vivo) of the same compound?
Answer: The value was “decreased”.

Question: What about the survival (polymicrobial sepsis [7]) of the same compound?
Answer: The survival was “significantly improved”.

Question: And the colonic tissue erosion (ulcerative colitis (UC); 50 and 100 mg/kg/day)?
Answer: Its colonic tissue erosion is “attenuation”.

Question: And the “HIF-1α and STAT3 protein expression in the colon” value (ulcerative colitis (UC); mouse, in vivo)?
Answer: Its value is “decreasing”.

Question: What about the “plasma levels of IL-10 and TGF-β1” value (ulcerative colitis (UC); mouse, in vivo) of the same compound?
Answer: The value was “increasing”.

Question: What about the “release of IL-6 and IL-17” value (ulcerative colitis (UC); plasma) of the same compound?
Answer: Its value is “reduce”.

Question: What about the “LPS-induced ARDS” value (LPS-induced ARDS [8]; 10 mg/kg ip 1 h before LPS 10 mg/kg ip) of the same compound?
Answer: The value was “attenuated”.

Question: What about the “expression of IκB-α” value (LPS-induced ARDS [8]; 10 mg/kg ip) of the same compound?
Answer: The value was “increased”.

Question: What about the “expression of TLR-4, MyD88, TRIF, and p-p65 in the lung tissue” value (LPS-induced ARDS [8]; 10 mg/kg ip) of the same compound?
Answer: The value was “alleviated”.

Question: What about the “expression of TNF-α, IL-1f and IL-6 in the lung, serum, and bronchoalveolar lavage fluid” value (LPS-induced ARDS [8]; 10 mg/kg ip) of the same compound?
Answer: Its value is “significantly decreased”.

Question: What about the “expression of p65” value (LPS-induced ARDS [8]; 10 mg/kg ip) of the same compound?
Answer: The value was “had no influence”.

Question: And the “TNF-α-induced nuclear factor-κB (NF-κB) activity” value (macrophage foam cells)?
Answer: Its value is “inhibition”.

Question: What about the “TNF-α-induced downregulation of ABCA1 and decrease in cholesterol efflux to apoA1” value (macrophage foam cells; pretreatment) of the same compound?
Answer: Its value is “attenuated”.

Question: What about the “rescue from lethal sepsis” value ([9]; first dose 24 hours after cecal ligation and puncture) of the same compound?
Answer: The value was “rescued”.

Question: And the “protection against lethal endotoxemia” value ([9]; intraperitoneal)?
Answer: The value was “protected”.

Question: What about the NO production (iNOS; cells cotreated with EGCG and LPS) of the same compound?
Answer: Its NO production is “Inhibition”.

Question: And the “130-kDa protein and 4.5-kb mRNA levels of iNOS” value (iNOS)?
Answer: Its value is “significantly reduced”.

Question: What about the “disappearance of inhibitor kappaB from cytosolic fraction” value (iNOS) of the same compound?
Answer: The value was “blocked”.

Question: What about the “activation of nuclear factor-kappaB” value (iNOS; electrophoretic mobility shift assay) of the same compound?
Answer: The value was “blocked”.

Question: And the “hypotension (mean arterial blood pressure)” value (polymicrobial sepsis [10])?
Answer: Its value is “significantly improved”.

Question: Which “interleukin-1, interleukin-6, interleukin-8 and TNF-alpha” value [11] does the source give for “trans-3,5-dimethoxy-4-hydroxystilbene [pterostilbene]” here?
Answer: The value was “inhibition”.

Question: And the NK cell activity (NK cell)?
Answer: Its NK cell activity is “increased NK cell activity”.

Question: What about the interferon gamma production (NK cell) of the same compound?
Answer: Its interferon gamma production is “increased”.

Question: What about the bioavailability [12] of the same compound?
Answer: The bioavailability was 80%.

— US11759495B2, “Upregulation of therapeutic T regulatory cells and suppression of suicidal ideations in response to inflammation by administration of nutraceutical compositions alone or combined with minocycline” (Therapeutic Solutions International, Inc., priority 2020, dated 2023)
